Here are results for 14 compounds from PubChem BioAssay (NCI).

“And” between values parts separate entries of the source, which are not always exact repeats. Equal entries are not always repeated.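 Tested at 5 concentrations; 48 h exposure; 96-well plates; endpoints linearly interpolated, else capped at highest concentration. Here, GI50 denotes the concentration required for 50% inhibition of growth. TGI marks complete inhibition of growth.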

Among the test systems are HOP-92 NSCLC; DU-145 prostate; HCT-116 colon; CAKI-1 renal; OVCAR-5 ovarian; NCI-H522 lung; MDA-MB-435; K-562 leukemia; OVCAR-8 ovarian; RXF 393 renal.
Common to all, as to assay: DTP human tumour cell line panel, 48 h

One may read the TGI as the concentration at which net growth stops. Read a high TGI as less potent growth arrest. Regarding `CCOc1cc2c(NCCCN(CCO)CCO)ncnc2c(OCC)c1OCC`, the TGI with HOP-92 NSCLC is > 88 µM; in the assay on DU-145 prostate, > 100 µM; in the assay on HCT-116 colon it was > 100 µM; with CAKI-1 renal, > 100 µM; in the assay with OVCAR-5 ovarian, > 100 µM; in the assay with NCI-H522 lung it was > 100 µM. Also, the TGI in the assay with MDA-MB-435, with K-562 leukemia, in the assay with OVCAR-8 ovarian and with RXF 393 renal was > 100 µM throughout.

For orientation: GI50 means the concentration that inhibits growth by half. With `ClC(Cl)c1nc(-c2cccnc2)n2nc(-c3ccccc3)cc2n1`, the GI50 with HOP-92 NSCLC was 2.16 µM; with DU-145 prostate, 0.554 µM; in the assay on HCT-116 colon it was 1.43 µM; in the assay with CAKI-1 renal it was 1.73 µM; in the assay with OVCAR-5 ovarian, 1.9 µM; with NCI-H522 lung, 1.67 µM. Besides, the values for the GI50 with MDA-MB-435, with K-562 leukemia and in the assay on RXF 393 renal were 1.34 µM, 1.33 µM and 1.13 µM, respectively. Further, the TGI in the assay with HOP-92 NSCLC was 5.29 µM; in the assay with DU-145 prostate, 3.14 µM; in the assay on HCT-116 colon, 6.29 µM; with CAKI-1 renal it was 5.51 µM; in the assay on OVCAR-5 ovarian, 5.43 µM; with NCI-H522 lung it was 6.03 µM. The total growth inhibition concentration (TGI) was 2.82 µM in the assay with MDA-MB-435, > 100 µM with K-562 leukemia and 2.45 µM in the assay with RXF 393 renal.

As for `COc1cc2c3c(c1)c1cc(OC)c(OC)cc1c[n+]3CC2`, the GI50 in the assay with DU-145 prostate was 40.3 µM; with HCT-116 colon it was 40.5 µM; with CAKI-1 renal it was > 100 µM; in the assay with OVCAR-5 ovarian, > 100 µM; with NCI-H522 lung, 1.93 µM; with MDA-MB-435 it was 44.2 µM. Further, the GI50 in the assay with K-562 leukemia is 40.5 µM; in the assay on OVCAR-8 ovarian, 1.86 µM. Moreover, the TGI in the assay with DU-145 prostate was 50 µM and > 100 µM; in the assay on HCT-116 colon, 50 µM and > 100 µM; in the assay with CAKI-1 renal, 50 µM and > 100 µM; in the assay on OVCAR-5 ovarian it was > 100 µM; with NCI-H522 lung, 14.8 µM and 37.1 µM; in the assay with MDA-MB-435, 50 µM and > 100 µM. For the same compound, the TGI is 50 µM and > 100 µM with K-562 leukemia; 50 µM and 43.6 µM in the assay on OVCAR-8 ovarian; 50 µM and > 100 µM in the assay on RXF 393 renal.

Regarding `C[C@]1(CO)[C@H]2CC[C@@]34C=C[C@@](CO)(CC[C@H]3[C@]2(C)CC[C@H]1O)C4`, the TGI in the assay on HOP-92 NSCLC, in the assay with DU-145 prostate, with HCT-116 colon, with CAKI-1 renal, in the assay on OVCAR-5 ovarian and in the assay on NCI-H522 lung was > 100 µM in each case. The TGI with MDA-MB-435, in the assay with OVCAR-8 ovarian and in the assay on RXF 393 renal was > 100 µM in each case.

Turning to `CCCCNN`, the TGI with DU-145 prostate, with HCT-116 colon, in the assay on CAKI-1 renal, in the assay on OVCAR-5 ovarian, in the assay with NCI-H522 lung and in the assay with MDA-MB-435 was > 100 µM each time. The TGI with K-562 leukemia, in the assay on OVCAR-8 ovarian and with RXF 393 renal was > 100 µM each time.

As for `CCOC(=O)c1[nH]c(-c2ccc(Cl)cc2)cc1-c1cccnc1`, the GI50 in the assay on HOP-92 NSCLC was 0.572 µM; in the assay on DU-145 prostate, 1.88 µM; in the assay with HCT-116 colon, 0.387 µM; in the assay on OVCAR-5 ovarian, 1.17 µM; with MDA-MB-435, 0.279 µM; in the assay on K-562 leukemia, 0.391 µM. In addition, the GI50 in the assay with OVCAR-8 ovarian is 2.51 µM; in the assay on RXF 393 renal, 1.27 µM. The TGI in the assay with HOP-92 NSCLC was 84.7 µM; with DU-145 prostate, > 100 µM; in the assay with HCT-116 colon it was > 100 µM; with OVCAR-5 ovarian it was > 100 µM; in the assay on MDA-MB-435, 1.42 µM; with K-562 leukemia it was > 100 µM. Besides, the figures for the TGI in the assay with OVCAR-8 ovarian and with RXF 393 renal were > 100 µM and 7.23 µM, respectively.

`Nc1ccc(S(=O)(=O)C23CC4CC(CC(C4)C2)C3)cc1`: the TGI in the assay with DU-145 prostate, with HCT-116 colon, in the assay with CAKI-1 renal, with OVCAR-5 ovarian, in the assay with NCI-H522 lung and in the assay with MDA-MB-435 was > 100 µM throughout. For the same compound, the TGI is > 100 µM in the assay with K-562 leukemia, > 100 µM in the assay on OVCAR-8 ovarian and 79.4 µM in the assay on RXF 393 renal.

Take `Nc1nnc2cc(Cl)ccc2n1`: the GI50 is 3.56 µM in the assay with HOP-92 NSCLC; > 100 µM in the assay with DU-145 prostate; > 100 µM in the assay on HCT-116 colon; > 100 µM in the assay on CAKI-1 renal; > 100 µM in the assay with OVCAR-5 ovarian; > 100 µM with MDA-MB-435. Moreover, the GI50 in the assay on K-562 leukemia, in the assay with OVCAR-8 ovarian and in the assay with RXF 393 renal was > 100 µM each time. In addition, the TGI was 47.6 µM with HOP-92 NSCLC; > 100 µM in the assay with DU-145 prostate; > 100 µM with HCT-116 colon; > 100 µM in the assay with CAKI-1 renal; > 100 µM in the assay on OVCAR-5 ovarian; > 100 µM with MDA-MB-435. Further, the TGI in the assay on K-562 leukemia, in the assay with OVCAR-8 ovarian and in the assay on RXF 393 renal was > 100 µM throughout.

As for `O=C(NCCCNc1cc(-c2cn(-c3ccccc3)nc2-c2cccc(O)c2)ccn1)c1ccccc1`, the GI50 was 1.7 µM with HOP-92 NSCLC; 5.29 µM in the assay with DU-145 prostate; 3.58 µM in the assay with HCT-116 colon; 2.48 µM in the assay on CAKI-1 renal; 3.93 µM in the assay with OVCAR-5 ovarian; 3.06 µM in the assay with NCI-H522 lung. Also, the GI50 was 1.87 µM with MDA-MB-435, 4.45 µM with OVCAR-8 ovarian and 1.97 µM in the assay with RXF 393 renal. Also, the TGI in the assay on HOP-92 NSCLC was determined as 24.5 µM; in the assay with DU-145 prostate, 96.5 µM; in the assay with HCT-116 colon, 17 µM; in the assay on CAKI-1 renal, 15.3 µM; with OVCAR-5 ovarian, 75 µM; in the assay on NCI-H522 lung, 17.1 µM. In addition, the results for the TGI in the assay on MDA-MB-435, with OVCAR-8 ovarian and with RXF 393 renal were 4.75 µM, 37.7 µM and 6.2 µM, respectively.

Regarding `N=C(N=C(N)N)N1CCN(c2ccncc2)CC1`, the GI50 with HOP-92 NSCLC, in the assay on DU-145 prostate, in the assay with HCT-116 colon, in the assay on CAKI-1 renal, with OVCAR-5 ovarian and in the assay on NCI-H522 lung was > 1000 µM in each case. Moreover, the values for the GI50 in the assay on MDA-MB-435, in the assay on K-562 leukemia and with OVCAR-8 ovarian were > 1000 µM, > 1000 µM and 483 µM, respectively. Further, the TGI in the assay with HOP-92 NSCLC, with DU-145 prostate, in the assay with HCT-116 colon, in the assay on CAKI-1 renal, with OVCAR-5 ovarian and with NCI-H522 lung was > 1000 µM in each case. In addition, the TGI in the assay with MDA-MB-435, with K-562 leukemia and in the assay on OVCAR-8 ovarian was > 1000 µM in each case.

Regarding `NC(=O)c1cc(Br)cc(C2CCCCC2)c1O`, the GI50 in the assay with HOP-92 NSCLC is 12.2 µM; in the assay with DU-145 prostate, 12.3 µM; in the assay with HCT-116 colon it was 12.5 µM; in the assay on CAKI-1 renal, 6.15 µM; with OVCAR-5 ovarian it was 13.9 µM; in the assay with MDA-MB-435, 14.7 µM. Also, the results for the GI50 in the assay on K-562 leukemia, with OVCAR-8 ovarian and in the assay on RXF 393 renal were 14.4 µM, 14.4 µM and 6.44 µM, respectively. The TGI with HOP-92 NSCLC is 25.7 µM; with DU-145 prostate, 24.9 µM; in the assay with HCT-116 colon, 25 µM; in the assay with CAKI-1 renal, 20.3 µM; in the assay on OVCAR-5 ovarian, 27.8 µM; with MDA-MB-435, 28.8 µM. In addition, the TGI with K-562 leukemia stood at 34.5 µM; in the assay with OVCAR-8 ovarian, 30 µM; with RXF 393 renal it was 22 µM.

Consider `Cc1sc(C)c(Cc2c(C)sc(C)c2CCl)c1CCl`, for which the GI50 with DU-145 prostate, with HCT-116 colon, in the assay with CAKI-1 renal, in the assay on OVCAR-5 ovarian, in the assay with NCI-H522 lung and with MDA-MB-435 was > 100 µM throughout. Further, the GI50 in the assay on K-562 leukemia was 23 µM; in the assay on OVCAR-8 ovarian, > 100 µM; with RXF 393 renal, > 100 µM. Also, the TGI in the assay on DU-145 prostate, in the assay with HCT-116 colon, in the assay on CAKI-1 renal, in the assay with OVCAR-5 ovarian, in the assay on NCI-H522 lung and in the assay with MDA-MB-435 was > 100 µM in each case. Also, the TGI in the assay with K-562 leukemia, in the assay on OVCAR-8 ovarian and in the assay with RXF 393 renal was > 100 µM each time.

In the case of `CC(=O)O[C@H]1CC[C@@]2(C)C(=CC[C@H]3[C@@H]4C/C(=C\c5cccc(OCCN6CCOCC6)c5)[C@H](OC(C)=O)[C@@]4(C)CC[C@@H]32)C1`, the GI50 with HOP-92 NSCLC was 4.32 µM; with DU-145 prostate, 23.3 µM; in the assay with HCT-116 colon, 4.1 µM; in the assay with CAKI-1 renal it was 12.2 µM; with OVCAR-5 ovarian it was 15 µM; in the assay on NCI-H522 lung, 12.9 µM. Besides, the GI50 with MDA-MB-435 was 11.1 µM; with K-562 leukemia, 2.95 µM; in the assay with OVCAR-8 ovarian it was 8.69 µM. In addition, the TGI is 16.8 µM with HOP-92 NSCLC; > 100 µM with DU-145 prostate; 15.9 µM in the assay with HCT-116 colon; 59 µM in the assay with CAKI-1 renal; 56.2 µM with OVCAR-5 ovarian; 27.5 µM in the assay with NCI-H522 lung. Besides, the TGI came out at 23.1 µM in the assay with MDA-MB-435, 12.5 µM with K-562 leukemia and 20.8 µM in the assay on OVCAR-8 ovarian.

As to `O=S(=O)(NCC1CCC(CNc2ccc(Cl)cc2)CC1)c1ccc(-c2ccccc2)cc1` (centres undefined), the GI50 in the assay on HOP-92 NSCLC was 45.6 µM; with DU-145 prostate, > 50 µM; with HCT-116 colon it was 32.2 µM; in the assay with CAKI-1 renal it was 25.6 µM; in the assay with OVCAR-5 ovarian, 29.3 µM; in the assay on NCI-H522 lung, > 50 µM. The GI50 is > 50 µM in the assay on MDA-MB-435, 17.4 µM in the assay with K-562 leukemia and 41.4 µM with OVCAR-8 ovarian. For the same compound, the total growth inhibition concentration (TGI) in the assay with HOP-92 NSCLC, with DU-145 prostate, in the assay on HCT-116 colon, in the assay with CAKI-1 renal, in the assay with OVCAR-5 ovarian and in the assay with NCI-H522 lung was > 50 µM throughout. For the same compound, the TGI in the assay with MDA-MB-435, in the assay on K-562 leukemia and in the assay on OVCAR-8 ovarian was > 50 µM throughout.
